According to US20030198661A1, “Antioxidant compositions and methods for companion animals” (MARS INCORPORATED, priority 2000, published 2003):

Assays:
[1] = Plasma vitamin C in dogs after dietary vitamin C; format: in vivo
Experimental: Samples are prepared under subdued lighting at all times.
A preferred minimal dose of vitamin C to achieve an increase in plasma in cats is 20 mg/400 kcal. A preferred minimal dose of vitamin C tested to achieve an increase in plasma in dogs was 27 mg/400 kcal.

[2] = test system: rabies; format: in vivo; details: healthy adult cats; once daily oral supplement at Table 13 levels
[3] = in vivo
[4] = cats; oral α-tocopherol acetate supplements
[5] = Plasma α-tocopherol response to supplementation in healthy dogs (Example 10); format: in vivo
From the text: Vitamin E is the collective name for 8 naturally occurring molecules, 4 tocopherols and 4 tocotrienols. The biological activity of the various forms roughly correlates with their antioxidant activities with the order of relative peroxyl scavenging reactivities of α>β>γ>δ-tocopherol. […] The minimum requirement for vitamin E in adult dogs has been established as 2.5 IU α-tocopherol/400 kcal diet (Nutrient Requirements of Dogs (1985) National Research Council (U.S.) National Academy Press Washington D.C. ISBN:0-309-03496-5). Prepared petfoods typically contain up to 10 times this amount but across the normal ranges of vitamin E in petfoods, plasma concentrations tend to be constant. In a study to evaluate the impact of supplementary vitamin E on the plasma response, 6 adult dogs, maintained on a nutritionally complete (see diet reference section) canned dog food (vitamin E content 8.2 mg/400 kcal (8.21U/400 kcal), were offered a supplement equivalent to 100 IU vitamin E/day for 6 weeks. A control group of 6 dogs was maintained under the same conditions but received no dietary supplement. Plasma α-tocopherol was monitored during, and for 4 weeks following, the supplementation period.

[6] = dog, in vivo

## O=C1O[C@H]([C@@H](O)CO)C(O)=C1O [Vitamin C, L-ascorbic acid]
[1]
  minimal dose of vitamin C tested to achieve an increase in plasma: 27 mg/400 kcal
[2]
  anti-rabies antibody response to vaccination versus unsupplemented controls: greater
[3]
  plasma vitamin C levels versus baseline within 7 days: significantly increased

## CC(=O)Oc1c(C)c(C)c2c(c1C)CCC(C)(CCC[C@H](C)CCC[C@H](C)CCCC(C)C)O2 (stereo partly drawn) [Vitamin E, alpha-tocopherol acetate]
[4]
  plasma vitamin E levels following oral supplementation: significantly increased
[2]
  anti-rabies antibody response to vaccination versus unsupplemented controls: greater

## CC1=C(/C=C/C(C)=C/C=C/C(C)=C/C=C/C=C(C)/C=C/C=C(C)/C=C/C2=C(C)CCCC2(C)C)C(C)(C)CCC1 [beta-carotene]
[2]
  anti-rabies antibody response to vaccination versus unsupplemented controls: greater

## CC(C)=CCC/C(C)=C/C=C/C(C)=C/C=C/C(C)=C/C=C/C=C(C)/C=C/C=C(C)/C=C/C=C(\C)CCC=C(C)C [lycopene]
[2]
  anti-rabies antibody response to vaccination versus unsupplemented controls: particularly marked

## NCCS(=O)(=O)O [taurine, aminoethylsulfonic acid]
[2]
  anti-rabies antibody response to vaccination versus unsupplemented controls: greater

## Cc1c(C)c2c(c(C)c1O)CC[C@@](C)(CCC[C@H](C)CCC[C@H](C)CCCC(C)C)O2 [α-tocopherol]
[5]; Test group (100 IU vitamin E/day for 6 weeks), Baseline
  Plasma α-tocopherol: 15.9
[5]; Test group (100 IU vitamin E/day), Day 28
  Plasma α-tocopherol: 32.6
[5]; Test group (100 IU vitamin E/day), Day 42
  Plasma α-tocopherol: 35.4
[5]; Test group, Day 70 (day 28 post-supplementation)
  Plasma α-tocopherol: 28.2 ± 6.87
[6]
  individual plasma α-tocopherol levels, median: 21.1 mg/L
